Data: patent publication US11208412B2 (DAEGU-GYEONGBUK MEDICAL INNOVATION FOUNDATION, priority 2017, dated 2021)

Key:
Assay in all cases: Kinase selectivity, DiscoverX scanMAX Kinase assay panel (% control)
Assay type in all cases: binding
[1] = target: T1, kinases of the scanMAX Kinase assay panel (Homo sapiens, UniProt P35916); details: FLT4; 1 uM
T1 construct: purchased DiscoverX Co. (contract measurement) scanMAX Kinase assay panel
Summary of the method: (§1)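 Percent of control computed as (compound − positive control)/(negative control − positive control) × 100, DMSO defining 100% and positive control 0%. Each panel kinase exposed to 1 uM compound; values under 35% taken to mean the compound acts on that kinase.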

[2] = target: T2, kinases of the scanMAX Kinase assay panel (Homo sapiens, UniProt Q00526); details: CDK3; 1 uM
T2 construct: purchased DiscoverX Co. (contract measurement) scanMAX Kinase assay panel
T2 sequence (Q00526 whole entry): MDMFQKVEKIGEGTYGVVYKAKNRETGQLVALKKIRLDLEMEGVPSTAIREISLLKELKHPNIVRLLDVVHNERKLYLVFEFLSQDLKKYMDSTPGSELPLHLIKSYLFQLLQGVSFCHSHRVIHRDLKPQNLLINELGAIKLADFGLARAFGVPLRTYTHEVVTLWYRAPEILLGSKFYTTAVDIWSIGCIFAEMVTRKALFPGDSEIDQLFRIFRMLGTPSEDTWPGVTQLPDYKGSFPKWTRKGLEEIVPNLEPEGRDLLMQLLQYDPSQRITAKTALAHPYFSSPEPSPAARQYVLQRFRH
Summary of the method: as §1

[3] = target: T3, kinases of the scanMAX Kinase assay panel (Homo sapiens, UniProt Q8TDC3); details: BRSK1; 1 uM
T3 construct: purchased DiscoverX Co. (contract measurement) scanMAX Kinase assay panel
T3 sequence (Q8TDC3 1-778): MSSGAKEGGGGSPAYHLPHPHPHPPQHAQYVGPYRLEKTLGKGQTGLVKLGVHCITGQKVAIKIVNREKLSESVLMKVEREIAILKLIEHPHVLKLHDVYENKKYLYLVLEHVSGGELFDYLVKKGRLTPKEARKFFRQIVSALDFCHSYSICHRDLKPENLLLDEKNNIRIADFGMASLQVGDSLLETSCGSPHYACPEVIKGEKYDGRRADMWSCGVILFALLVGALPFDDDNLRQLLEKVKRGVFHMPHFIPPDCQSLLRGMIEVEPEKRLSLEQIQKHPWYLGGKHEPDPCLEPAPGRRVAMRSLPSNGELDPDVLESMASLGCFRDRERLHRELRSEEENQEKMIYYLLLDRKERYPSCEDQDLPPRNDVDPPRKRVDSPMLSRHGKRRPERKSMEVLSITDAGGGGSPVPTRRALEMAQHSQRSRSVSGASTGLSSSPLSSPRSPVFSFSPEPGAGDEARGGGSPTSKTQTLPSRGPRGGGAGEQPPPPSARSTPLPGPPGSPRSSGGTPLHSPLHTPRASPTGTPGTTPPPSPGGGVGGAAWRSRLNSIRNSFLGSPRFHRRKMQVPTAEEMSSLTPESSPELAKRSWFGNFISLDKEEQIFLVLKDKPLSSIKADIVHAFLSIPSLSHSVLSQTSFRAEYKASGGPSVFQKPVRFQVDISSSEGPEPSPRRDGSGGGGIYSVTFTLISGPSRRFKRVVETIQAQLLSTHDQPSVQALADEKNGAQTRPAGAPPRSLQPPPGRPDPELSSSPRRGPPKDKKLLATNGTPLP
Summary of the method: as §1

[4] = target: T4, kinases of the scanMAX Kinase assay panel (Homo sapiens, UniProt Q9UF33); details: EPHA6; 1 uM
T4 construct: purchased DiscoverX Co. (contract measurement) scanMAX Kinase assay panel
T4 sequence (Q9UF33 23-1036): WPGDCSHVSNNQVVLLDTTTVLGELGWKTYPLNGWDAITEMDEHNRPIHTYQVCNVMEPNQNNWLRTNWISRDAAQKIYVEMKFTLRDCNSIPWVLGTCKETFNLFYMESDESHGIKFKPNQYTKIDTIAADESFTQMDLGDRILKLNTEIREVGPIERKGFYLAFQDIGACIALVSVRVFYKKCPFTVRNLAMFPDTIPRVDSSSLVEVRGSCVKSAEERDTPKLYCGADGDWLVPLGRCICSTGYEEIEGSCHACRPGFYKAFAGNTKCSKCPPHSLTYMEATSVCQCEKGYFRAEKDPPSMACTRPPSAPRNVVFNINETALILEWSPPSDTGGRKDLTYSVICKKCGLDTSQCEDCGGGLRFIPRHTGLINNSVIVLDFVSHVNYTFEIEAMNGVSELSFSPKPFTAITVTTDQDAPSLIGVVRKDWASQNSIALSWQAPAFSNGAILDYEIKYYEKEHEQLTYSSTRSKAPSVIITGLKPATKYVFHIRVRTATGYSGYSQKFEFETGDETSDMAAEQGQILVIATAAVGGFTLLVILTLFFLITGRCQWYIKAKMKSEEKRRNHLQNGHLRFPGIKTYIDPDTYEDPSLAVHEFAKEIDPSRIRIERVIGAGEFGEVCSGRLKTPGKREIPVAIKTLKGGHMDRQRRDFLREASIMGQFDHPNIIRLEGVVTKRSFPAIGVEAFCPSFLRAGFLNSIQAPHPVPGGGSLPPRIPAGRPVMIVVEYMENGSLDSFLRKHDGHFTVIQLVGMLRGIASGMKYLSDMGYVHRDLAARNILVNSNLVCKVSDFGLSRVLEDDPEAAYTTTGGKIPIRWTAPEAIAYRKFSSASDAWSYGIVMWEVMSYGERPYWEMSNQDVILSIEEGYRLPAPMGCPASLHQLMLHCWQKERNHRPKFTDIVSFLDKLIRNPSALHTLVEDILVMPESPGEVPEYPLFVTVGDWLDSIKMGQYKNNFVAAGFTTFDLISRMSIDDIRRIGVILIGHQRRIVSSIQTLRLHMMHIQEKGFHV
Summary of the method: as §1

T1 sequence (P35916 25-1363): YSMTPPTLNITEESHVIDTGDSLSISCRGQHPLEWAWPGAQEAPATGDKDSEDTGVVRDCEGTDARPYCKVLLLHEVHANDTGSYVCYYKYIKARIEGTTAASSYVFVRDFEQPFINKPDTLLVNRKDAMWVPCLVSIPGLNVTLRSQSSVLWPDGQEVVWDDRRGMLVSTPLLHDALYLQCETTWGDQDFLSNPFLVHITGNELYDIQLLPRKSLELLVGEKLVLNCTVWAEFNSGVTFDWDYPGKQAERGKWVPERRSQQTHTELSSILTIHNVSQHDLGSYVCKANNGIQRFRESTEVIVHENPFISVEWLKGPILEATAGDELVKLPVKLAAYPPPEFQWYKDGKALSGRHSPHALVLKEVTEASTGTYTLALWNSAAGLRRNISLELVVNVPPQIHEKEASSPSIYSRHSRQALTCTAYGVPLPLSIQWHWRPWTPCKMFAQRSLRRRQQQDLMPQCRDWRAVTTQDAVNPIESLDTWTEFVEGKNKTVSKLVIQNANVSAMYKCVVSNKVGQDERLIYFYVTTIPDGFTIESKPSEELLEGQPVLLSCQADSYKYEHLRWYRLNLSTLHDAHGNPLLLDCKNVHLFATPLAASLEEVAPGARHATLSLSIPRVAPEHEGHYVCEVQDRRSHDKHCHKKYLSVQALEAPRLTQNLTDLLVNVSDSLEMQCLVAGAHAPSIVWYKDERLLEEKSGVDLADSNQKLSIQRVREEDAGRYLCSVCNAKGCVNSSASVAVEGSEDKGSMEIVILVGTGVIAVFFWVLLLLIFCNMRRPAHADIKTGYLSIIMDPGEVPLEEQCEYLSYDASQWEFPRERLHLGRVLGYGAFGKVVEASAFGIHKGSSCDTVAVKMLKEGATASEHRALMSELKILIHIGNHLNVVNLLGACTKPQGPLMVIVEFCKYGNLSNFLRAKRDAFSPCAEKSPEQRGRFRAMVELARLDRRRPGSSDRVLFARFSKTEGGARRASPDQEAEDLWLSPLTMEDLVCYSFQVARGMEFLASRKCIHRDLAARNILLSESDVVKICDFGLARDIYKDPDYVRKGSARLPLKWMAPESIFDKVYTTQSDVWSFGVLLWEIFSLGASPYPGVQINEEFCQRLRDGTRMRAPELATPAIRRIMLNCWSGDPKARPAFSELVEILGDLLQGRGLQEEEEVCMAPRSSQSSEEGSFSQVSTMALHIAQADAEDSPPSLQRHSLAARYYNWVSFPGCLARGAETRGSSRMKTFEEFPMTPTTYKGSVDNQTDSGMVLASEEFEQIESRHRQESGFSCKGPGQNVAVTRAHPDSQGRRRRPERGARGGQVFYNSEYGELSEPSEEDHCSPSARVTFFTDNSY

| Structure (SMILES) | remaining binding at 1 µM [1] | remaining binding at 1 µM [2] | remaining binding at 1 µM [3] | remaining binding at 1 µM [4] |
| --- | --- | --- | --- | --- |
| CCNc1nc(Nc2ccc(C(=O)N3CCC(N4CCOCC4)CC3)cc2OC)nc2[nH]cc(C(F)(F)F)c12 [Example 104, (4-((4-(ethylamino)-5-(trifluoromethyl)-7H-pyrrolo[2,3-d]pyrimidine-2-yl)amino)-3-methoxyphenyl)(4-morpholinopiperidine-1-yl)methanone] | 97% | 93% | 100% | 100% |
| CC1(Nc2nc(Nc3cnn([C@H]4CCN(C5COC5)C[C@@H]4F)c3Cl)nc3[nH]cc(C#N)c23)CC1 [Example 52, 2-((5-chloro-1-((3S,4S)-3-fluoro-1-(oxetane-3-yl)piperidine-4-yl)-1H-pyrazole-4-yl)amino)((1-methylcyclopropyl)amino)-7H-pyrrolo[2,3-d]pyrimidine-5-carbonitrile] | 0.6% | 76% | 96% | 43% |
| CNc1nc(Nc2ccc(C(=O)N3CCOCC3)cc2OC)nc2[nH]cc(C#N)c12 [Example 1, 2-((2-methoxy-4-(morpholine-4-carbonyl)phenyl)amino)-4-(methylamino)-7H-pyrrolo[2,3-d]pyrimidine-5-carbonitrile] | 100% | 100% | 97% | 93% |
